Entries after “also recorded” stand apart in the source; their conditions may differ.
Tests used:
[1] = target: T1, human TRPV1 (Homo sapiens, UniProt Q8NER1); experiment: Ca2+ signal in N2a cells transfected with human TRPV1; type: cell-based; details: stimulation with 5 μM capsaicin
T1 construct: expressed in transfected cells; host or cells: N2a cells
Experimental: Compounds were tested for their effect on TRPV1, TRPV2, and TRPV3. Methods were similar to those described in Example 15. Briefly, N2a cells were transfected with human TRPV1, TRPV2, or TRPV3. eGFP-transfection was used as control. For specific stimulation of TRPV1, 5 μM capsaicin was used. For stimulation of TRPV2, hypotonicity (260 mosmol/L) was used, based on previous reports of TRPV2 being osmotically responsive. N2a cells were not responsive to hypotonicity, and neither were control-transfected cells. For TRPV3-expressing cells, camphor (20% of a commercially available stock solution) was used. […] Stimulation and control protocols were applied as for TRPA1-expressing N2a cells as detailed above in Example 15.

[2] = UVB permeation of paw-pad skin (sunscreen test); set-up: species or system mouse; details: topically applied; GSK205 5 mM
Experimental: The UV LED was powered with 20 mA of current, resulting in 500 μW of optical power in a circular focal spot 1.5 mm in diameter, with 70% of the total flux in a 0.5 mm beam radius. The UV optical power transmitted through the sample was detected by a Hamamatsu 5127-66BR UV detector, and the output of the photodetector was measured using a Keithley 236 source measure unit. Next, the foot-pad epidermis of a mouse was measured for UV transmission by placing it on a quartz coverslip and exposure to the UV beam. The vehicle-control group was treated with the alcohol and glycerol solution only. Another control group consisted of a commercially-available SPF100 preparation sunscreen in form of a cream, which was applied similar to the vehicle-control. The data for the GSK205 and sunscreen was normalized to this control data.

[3] = test system: IL-6; experiment: Keratinocyte IL-6 expression in UVB-exposed footpad after topical treatment; type: in vivo, mouse; details: 5 mM GSK205 topical
Experimental: (§1) GSK205 topical treatment: A viscous solution of 68% EtOH/5% glycerol plus 1 mM or 5 mM GSK205 (none for control) was applied to hindpaws by rubbing in 20 μL, applied at time-points 1 hour and again 10 min before UV exposure.
(§2) Routine procedures were followed as described previously (Chen et al., 2009). Mice were perfused transcardially with 30 mL PBS, followed by 30 mL 4% paraformaldehyde. Tissues, including the L5 DRGs (bilateral), and footpad preparations, were dissected and post-fixed in 4% paraformaldehyde. Tissue blocks were further cryoprotected in 30% sucrose in PBS for 24-48 hours. For mouse TRPV4, keratin-specific antibodies, phospho-ERK, IL-6, IL-1β, CXCL5 and caspase-1, tissue was prepared as frozen blocks and subsequently sectioned on a cryostat. For CD68, CD15 (neutrophil elastase) and CD3, mouse skin was prepared by 2% PFA perfusion. […]

[4] = Histopathology of UVB-photodermatitis in topically treated paw-pad skin; type: in vivo, mouse; details: 5 mM GSK205 topical
Experimental: as §1

[5] = target: T2, TRPV4 (Mus musculus, UniProt Q9EPK8); experiment: GSK101-evoked Ca++ transient in 1° MK; type: cell-based; details: 5 nM GSK101; GSK205 20 μM
T2 construct: endogenous in cells; host or cells: primary mouse epidermal keratinocytes (1° MK), wild type
T2 sequence (Q9EPK8 whole entry): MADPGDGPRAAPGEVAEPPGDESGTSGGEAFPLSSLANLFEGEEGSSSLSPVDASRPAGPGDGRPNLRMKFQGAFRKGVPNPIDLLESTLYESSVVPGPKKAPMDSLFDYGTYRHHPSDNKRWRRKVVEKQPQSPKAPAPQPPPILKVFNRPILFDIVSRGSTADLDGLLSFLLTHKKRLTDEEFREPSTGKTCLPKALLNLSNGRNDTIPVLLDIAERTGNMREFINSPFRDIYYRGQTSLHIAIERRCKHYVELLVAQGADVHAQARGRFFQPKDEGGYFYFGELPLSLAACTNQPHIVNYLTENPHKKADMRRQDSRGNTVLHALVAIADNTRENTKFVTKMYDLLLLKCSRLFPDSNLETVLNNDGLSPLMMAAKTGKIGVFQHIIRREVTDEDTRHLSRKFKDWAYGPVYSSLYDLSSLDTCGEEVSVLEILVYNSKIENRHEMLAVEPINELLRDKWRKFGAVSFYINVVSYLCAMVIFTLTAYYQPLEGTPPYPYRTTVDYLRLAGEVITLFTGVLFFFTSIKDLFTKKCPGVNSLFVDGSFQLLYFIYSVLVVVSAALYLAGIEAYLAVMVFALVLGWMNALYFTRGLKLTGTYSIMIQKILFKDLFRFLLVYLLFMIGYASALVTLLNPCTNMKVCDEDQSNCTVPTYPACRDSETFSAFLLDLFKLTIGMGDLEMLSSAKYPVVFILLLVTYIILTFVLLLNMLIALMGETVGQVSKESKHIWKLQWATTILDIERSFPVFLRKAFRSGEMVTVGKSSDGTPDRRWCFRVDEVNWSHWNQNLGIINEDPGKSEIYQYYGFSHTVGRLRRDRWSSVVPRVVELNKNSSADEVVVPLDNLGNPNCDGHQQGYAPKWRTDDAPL
Experimental: Ca++ imaging of mouse 1° MK in response to chemical activation of TRPV4 was conducted after loading with 2 μM fura2-AM, following a ratiometric Ca2+ imaging protocol with 340/380 nm […] for dual excitation. Ratios of emissions were acquired at 0.5 Hz. ΔR/R0 was determined as the fraction of the increase of a given ratio over baseline ratio, divided by baseline ratio. For stimulation of cells with UVB, where fura-2 was not suitable because of the proximity of stimulation with 340/380 nm and 295 nm, 2 μM fluo4-AM was used instead. Ca++ imaging was carried out at 488 nm excitation, acquisition of emissions at 0.5 Hz, expressed as ΔF/F0. In the custom-built UV optical system, UV LEDs were capped with a ball lens, a transparent optical window in the shape of a hemispherical lens (FIG. 2B). The LED output optical beam focused at 15-20 mm from the lens, with a spot diameter of approximately 1.5-2.0 mm (FIG. 2C). […] The thermal equilibration stage was set for physiological temperature. We confirmed the non-thermal nature of UVB stimulation using the customized 295 nm LED device in a dedicated experiment (FIG. 2D), thus confirming the specific modality of stimulation as UVB.

[6] = test system: CXCL5; experiment: Keratinocyte CXCL5 expression in UVB-exposed footpad after topical treatment; type: in vivo, mouse; details: 5 mM GSK205 topical
Experimental: as §1, §2

T1 sequence (Q8NER1 whole entry): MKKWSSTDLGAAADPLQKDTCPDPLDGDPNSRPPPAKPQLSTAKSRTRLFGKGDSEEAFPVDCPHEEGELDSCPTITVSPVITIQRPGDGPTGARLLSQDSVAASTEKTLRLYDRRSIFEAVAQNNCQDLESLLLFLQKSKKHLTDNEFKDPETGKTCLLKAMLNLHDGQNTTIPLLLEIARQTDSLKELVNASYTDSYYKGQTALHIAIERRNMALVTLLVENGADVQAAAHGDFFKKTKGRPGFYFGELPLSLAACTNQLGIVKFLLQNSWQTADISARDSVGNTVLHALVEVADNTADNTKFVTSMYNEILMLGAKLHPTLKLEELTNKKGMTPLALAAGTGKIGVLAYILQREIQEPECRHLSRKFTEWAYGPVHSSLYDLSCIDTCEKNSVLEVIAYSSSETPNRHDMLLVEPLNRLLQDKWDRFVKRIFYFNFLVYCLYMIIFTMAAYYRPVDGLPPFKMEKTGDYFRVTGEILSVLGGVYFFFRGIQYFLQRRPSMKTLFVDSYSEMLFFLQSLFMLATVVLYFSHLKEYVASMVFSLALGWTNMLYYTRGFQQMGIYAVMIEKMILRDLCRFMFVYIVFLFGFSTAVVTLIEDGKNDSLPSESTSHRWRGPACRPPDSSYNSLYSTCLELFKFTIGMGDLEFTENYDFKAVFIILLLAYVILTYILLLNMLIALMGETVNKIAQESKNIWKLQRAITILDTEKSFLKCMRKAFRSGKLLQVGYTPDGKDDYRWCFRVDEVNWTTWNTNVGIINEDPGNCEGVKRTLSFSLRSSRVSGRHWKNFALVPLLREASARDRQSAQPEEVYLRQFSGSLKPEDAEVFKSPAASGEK

SMILES	Ca2+ transience on TRPV1 stimulation [1]	UVB permeation of paw-pad skin vs. vehicle control [2]	keratinocyte expression of IL-6 in UVB-exposed footpad [3]	UVB-photodermatitis histopathology (inflammation) [4]	GSK101-evoked Ca++ transient [5]	keratinocyte expression of CXCL5 in UVB-exposed footpad [6]
CN(CCc1ccc(Nc2nc(-c3ccccc3)cs2)cc1)Cc1ccccc1 [Compound 16-8]	not affected	–	–	–	–	–
CN(CCc1ccc(Nc2nc(-c3cccnc3)cs2)cc1)Cc1ccccc1 [GSK205]	–	equal UVB permeation; also recorded: absence of a change	Comparably significant blocks; also recorded: attenuates keratinocyte expression of IL-6	virtual elimination of inflammation; also recorded: markedly reduced inflammatory infiltrate	eliminated; also recorded: completely blocked	Comparably significant blocks; also recorded: attenuates keratinocyte expression of CXCL5

— patent US11014896B2, “TRPA1 and TRPV4 inhibitors and methods of using the same for organ-specific inflammation and itch” (Duke University, priority 2014, dated 2021)
